# Tests used:
# TAK1-TAB1 fusion protein = molecular target: T1, TAK1-TAB1 fusion protein (Homo sapiens, UniProt O43318); experiment: In vitro TAK1 kinase assay (33P-ATP, casein substrate); type: biochemical; conditions: semi-quantitative score, at least two independent experiments
# T1 construct: purchased Upstate 14-600
# T1 sequence (O43318 with tags, fused parts or gaps limits assumed): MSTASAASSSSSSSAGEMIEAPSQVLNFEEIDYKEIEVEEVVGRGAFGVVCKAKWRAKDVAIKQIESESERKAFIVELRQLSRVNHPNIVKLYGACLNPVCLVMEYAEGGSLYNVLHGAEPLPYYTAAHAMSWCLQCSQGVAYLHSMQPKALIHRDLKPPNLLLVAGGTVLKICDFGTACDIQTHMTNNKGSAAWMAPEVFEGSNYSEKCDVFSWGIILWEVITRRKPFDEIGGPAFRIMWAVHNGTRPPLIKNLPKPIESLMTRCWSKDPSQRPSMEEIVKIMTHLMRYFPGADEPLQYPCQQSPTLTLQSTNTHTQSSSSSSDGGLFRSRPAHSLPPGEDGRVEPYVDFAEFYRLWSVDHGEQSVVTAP
# Experimental: For assessing TAK1 inhibition, active TAK1-TAB1 fusion protein was used from Upstate (Cat. No, 14-600). Kinase reactions are set up in 96-well polypropylene plates in 25 μL containing 0.5 mU TAK1-TAB1 fusion protein, […], 0.01 μCi/μL [^33P]-γ-ATP, 0.1 mg/mL casein substrate in 1× reaction buffer containing 10 mM MOPS pH 7.0, 1 mM EDTA.
# Starting from the compound master stocks (all at 10 mM concentration in 100% DMSO) a 3-fold serial dilution is made in 96-well plates in 100% DMSO. Plates are further diluted […] in H2O containing 3.5% DMSO, to obtain an intermediate work stock with compounds at 5× the final assay concentration in 5% DMSO.
# 5 μL of the intermediate stock is transferred into V-bottom 96 well polypropylene plates and 11 μL of Enzyme mix is added. Enzyme mix is made by combining 5 μL 5× reaction buffer ([…] pH 7.0, 1 mM EDTA), 5 μL casein (Sigma) diluted in H2O to 0.5 mg/mL and 1 μL of TAK1-TAB1 fusion protein that was prediluted to 0.5 mU/μL in 1× enzyme dilution buffer (20 mM MOPS pH 7.0, 0.1 mM EDTA, 0.01% Brij-35, 5% glycerol, 1 mM DTT, 1 mg/ml BSA).
# The reactions are started by the addition of 9 μL of mixture containing ATP (20.83 uM) and [^33P]-γ-ATP (0.028 μCi/μL).
# The assay is stopped 90 minutes after incubation at 30° C. by the addition of 25 μL phosphoric acid (150 mM). The label incorporated into the casein substrate is separated from labeled unincorporated ATP by filtration onto 96-well filter plates using a harvester device. After 6 washes with 75 mM phosphoric acid, the bottom of the filter plates are sealed, and incorporated label is quantified after addition of 40 μL scintillation fluid using TopCount.
# Based on these percent inhibition data obtained in at least two independent experiments for the compounds, compounds are ranked using semi-quantitative scores. Table A below lists a number of compounds which have been or can be prepared according to the synthetic methods described herein. Semi-quantitative score: • *>3001 nM • ** 1001-3000 nM • *** 101-1000 nM • ****<100 nM
# [1] = test system: MMP1 expression from activated SFs (RASF); experiment: MMP assay: MMP1 expression (ELISA) by TNF-α-triggered RASFs; type: cell-based; conditions: RASF triggered with TNFα, MMP1 ELISA after 48 hrs, semi-quantitative score
# Experimental: A 384-well format ELISA for measurement of MMP1 is developed. Various primary antibodies are tested, as well as various ELISA protocols. The following protocol is developed and validated to measure MMP1 levels in SF supernatant in 384 well plates: white Lumitrac 600 384 well plates (Greiner) are coated with 2 μg/mL anti-MMP1 antibody MAB1346 (Chemicon). The antibody is diluted in buffer 40 (1.21 g Tris base (Sigma), 0.58 g NaCl (Calbiochem) and 5 mL 10% NaN3 (Sigma) in 1 L milliQ water and adjusted to pH 8.5). After overnight incubation at 4° C., plates are washed with PBS (80 g NaCl, 2 g KCl (Sigma), 11.5 g Na2HPO4.7H2O and 2 g KH2PO4 in 10 L milliQ; pH 7.4) and blocked with 100 μL/well Casein buffer (2% Casein (VWR International) in PBS). Next day, casein buffer is removed from ELISA plates and replaced by 50 μL/well EC buffer (4 g casein, 2.13 g Na2HPO4 (Sigma), 2 g bovine albumin (Sigma), 0.69 g NaH2PO4.H2O (Sigma), 0.5 g CHAPS (Roche), 23.3 g NaCl, 4 mL 0.5 M EDTA pH 8 (Invitrogen), 5 mL 10% NaN3 in 1 L milliQ and adjusted to pH 7.0). 0.25 mM DTT (Sigma) is added to the thawed sample plates. After removal of the EC buffer, 20 μL of sample is transferred to the ELISA plates. After overnight incubation at 4° C. plates are washed twice with PBS and once with PBST (PBS with 0.05% Tween-20 (Sigma)) and incubated with 35 μL/well biotinylated anti-MMP1 antibody solution (R&D). This secondary antibody is diluted in buffer C (0.82 g NaH2PO4.H2O, 4.82 g Na2HPO4, 46.6 g NaCl, 20 g bovine albumin and 4 ml, 0.5M EDTA pH 8 in 2 L milliQ and adjusted to pH 7.0) at a concentration of 5 μg/mL. After 2 h of incubation at RT, plates are washed as described above and incubated with 50 μL/well streptavidin-HRP conjugate (Biosource). Streptavidin-HRP conjugate is diluted in buffer C at a concentration of 0.25 μg/mL. After 45 min, plates are washed as described above and incubated for 5 min with 50 μL/well BM Chem ELISA Substrate (Roche). Readout is performed on the Luminoscan Ascent Luminometer (Labsystems) with an integration time of 200 msec or with an Envision reader (Perkin Elmer).
# SFs were acquired at passage 1 from a commercial supplier (Cell applications, Inc.). SFs are cultured in DMEM supplemented with 10% heat-inactivated FBS, 1× penicillin/streptomycin (Invitrogen) at 37° C., 10% CO2 until passage 6. Aliquots of the cells are frozen and cryopreserved in liquid nitrogen. Starting from a cryopreserved aliquot, cells are further expanded by sub-culturing cells at 1/3 ratio every week. Cells between passage 10 and 12 are routinely used in compound testing according to the following protocol.
# Starting from the compound master stocks (all at 10 mM concentration in 100% DMSO) a 3-fold serial dilution is made in 96-well plates in 100% DMSO. Then, plates are further diluted 45-fold in M199 medium supplemented with 1% heat-inactivated FBS to obtain a intermediate work stock.
# At day 1, RASFs are seeded in 96 well plates (flat bottom, tissue culture treated, Greiner) at a density of 3000 cells/well in complete synovial growth medium (Cell Applications). Day 5, the medium is completely removed from the cells, and replaced by 81 μL of M199 medium supplemented with 1% heat-inactivated FBS followed by addition of 10 μL compound out of the intermediate work stock. After an incubation period of 90 minutes, which allows the compounds to equilibrate and enter the cells, cells are stimulated with either TNF-α or ‘complex trigger’. TNF-α trigger is added in a volume of […] to obtain final concentration of 10 ng/mL. For that, TNF-α stock (PeproTech) at 10 μg/mL was diluted to 100 ng/mL TNF-α in M199 medium supplemented with 1% FBS. ‘Complex trigger’ mix is added in a volume of 20 μL to obtain a final concentration of 12.5%. For that, ‘complex trigger’ mix, is diluted to 80% with M199 medium supplemented with 1% FBS. […]
IC50 (TAK1-TAB1 fusion protein) [nM],EC50 [1] [nM],Compound
101 to 1000,1000 to 3000,"CC(C)N1CCN(c2ccc(Nc3ccc(-c4cn[nH]c4)n4ccnc34)cc2F)CC1 [Compound 5, [3-Fluoro-4-(4-isopropyl-piperazin-1-yl)-phenyl]-[5-(1H-pyrazol-4-yl)-imidazo[1,2-a]pyridin-8-yl]-amine]"
101 to 1000,> 3000,"CN(C)C(=O)c1ccc(Nc2ccc(-c3ccc4c(c3)CNC4=O)n3ccnc23)cc1 [Compound 14, N,N-dimethyl-4-(5-(1-oxoisoindolin-5-yl)imidazo[1,2-a]pyridin-8-ylamino)benzamide]"
101 to 1000,101 to 1000,O=c1cc(-c2ccc(Nc3ccc(N4CCN(C5CCC5)CC4)cc3)c3nccn23)cc[nH]1 [Compound 85]
101 to 1000,1000 to 3000,"O=c1cc(-c2ccc(Nc3ccc(C4CCN(CCF)CC4)cc3)c3nccn23)cc[nH]1 [Compound 108, 4-(8-{4-[1-(2-Fluoro-ethyl)-piperidin-4-yl]-phenylamino}-imidazo[1,2-a]pyridin-5-yl)-1H-pyridin-2-one]"
101 to 1000,> 3000,CCC(CC)N1CCN(c2ccc(Nc3ccc(-c4cn[nH]c4)n4ccnc34)cc2)CC1 [Compound 89]
101 to 1000,101 to 1000,"O=c1cc(-c2ccc(Nc3ccc(N4CCC(N5CCCCC5)CC4)cc3)c3nccn23)cc[nH]1 [Compound 120, 4-[8-(4-[1,4′]Bipiperidinyl-1′-yl-phenylamino)-imidazo[1,2a]pyridi-5-yl]-1H-pyridin-2-one]"
< 100,101 to 1000,"CC(C)N1CCN(c2ccc(Nc3ccc(-c4ccc5c(c4)CNC5=O)n4ccnc34)cc2)CC1 [Compound 12, 5-{8-[4-(4-Isopropyl-piperazin-1-yl)-phenylamino]-imidazo[1,2-a]pyridin-5-yl}-2,3-dihydro-isoindol-1-one]"
1000 to 3000,1000 to 3000,O=c1cc(-c2ccc(Nc3ccc(N4CCN(C5CC5)CC4)cc3)c3nccn23)cc[nH]1 [Compound 88]
101 to 1000,1000 to 3000,CC(C)N1CCC(c2ccc(Nc3ccc(-c4cc[nH]c(=O)c4)n4ccnc34)cc2)CC1 [Compound 96]
101 to 1000,> 3000,c1cn2c(-c3cn[nH]c3)ccc(Nc3ccc(N4CCN(C5CCC5)CC4)cc3)c2n1 [Compound 82]
101 to 1000,101 to 1000,O=c1cc(-c2ccc(Nc3ccc(N4CCOCC4)c(F)c3)c3nccn23)cc[nH]1 [Compound 65]
101 to 1000,101 to 1000,CCC(CC)N1CCN(c2ccc(Nc3ccc(-c4cc[nH]c(=O)c4)n4ccnc34)cc2)CC1 [Compound 87]
< 100,> 3000,"CC(C)N1CCN(C(=O)c2ccc(Nc3ccc(-c4ccc5c(c4)CNC5=O)n4ccnc34)cc2)CC1 [Compound 48, 5-(8-(4-(4-isopropylpiperazine-1-carbonyl)phenylamino)imidazo [1,2-a]pyridin-5-yl)isoindolin-1-one]"

# The next lines start with the molecule.
Compound,IC50 (TAK1-TAB1 fusion protein) [nM],EC50 [1] [nM]
"COCCN(C)C(=O)c1ccc(Nc2ccc(-c3ccc4c(c3)CNC4=O)n3ccnc23)cc1 [Compound 38, N-(2-methoxyethyl)-N-methyl-4-(5-(1-oxoisoindolin-5-yl)imidazo[1,2-a]pyridin-8-ylamino)benzamide]",101 to 1000,> 3000
CN1CCN(c2ccc(Nc3ccc(-c4ccc(C(N)=O)cc4)n4ccnc34)cc2F)CC1 [Compound 63],101 to 1000,> 3000
NC(=O)c1ccc(-c2ccc(Nc3ccc(N4CCOCC4)c(F)c3)c3nccn23)cc1 [Compound 66],1000 to 3000,101 to 1000
"CCOCCN1CCN(C(=O)c2ccc(Nc3ccc(-c4ccc5c(c4)CNC5=O)n4ccnc34)cc2)CC1 [Compound 40, 5-(8-(4-(4-(2-ethoxyethyl)piper-azine-1-carbonyl)phenyl-amino)imidazo[1,2-a]pyridin-5-yl)isoindolin-1-one]",101 to 1000,> 3000
CCN1CCN(c2ccc(Nc3ccc(-c4ccc(C(N)=O)cc4)n4ccnc34)cc2)CC1 [Compound 81],101 to 1000,1000 to 3000
Fc1cc(Nc2ccc(-c3cn[nH]c3)n3ccnc23)ccc1N1CCOCC1 [Compound 69],101 to 1000,1000 to 3000
"CS(=O)(=O)c1ccc(Nc2ccc(-c3ccc4c(c3)CNC4=O)n3ccnc23)cc1 [Compound 18, 5-(8-(4-(methylsulfonyl)phenylamino)imi-dazo[1,2-a]pyridin-5-yl)isoindolin-1-one]",101 to 1000,> 3000
"CN(C)c1ccc(CNS(=O)(=O)c2ccc(Nc3ccc(-c4ccc5c(c4)CNC5=O)n4ccnc34)cc2)cc1 [Compound 25, N-(4-(dimethylamino)benzyl)-4-(5-(1-oxoisoindolin-5-yl)imidazo[1,2-a]pyridin-8-ylamino)benzene sulfonamide]",101 to 1000,1000 to 3000
Cc1n[nH]c(C)c1-c1ccc(Nc2ccc(N3CCOCC3)cc2)c2nccn12 [Compound 92],> 3000,> 3000
